Structures can show the parent of a compound that is named as a salt.
Experiments:
[1] = Acute toxicity in mice by the oral route; conditions: mouse, in vivo, per os, read-out: Approximate lethal dose 50 (LD50)
Experimental: Toxicity was determined in mice by the oral route.

central nervous system = experiment: Effects on the central nervous system in mice; assay type: in vivo; conditions: oral, same dosages which induce an anti-hypertensive activity in rats
Excerpt: Such central effects may be directly related to the hypotensive action.

SMILES	LD50 [1] [mg/kg]	aggressiveness (central nervous system)	experimentally-induced sleep (central nervous system)	sedation (central nervous system)
O=C(c1ccc(F)cc1)C1CCN(CC2COc3ccccc3O2)CC1 (centres unmarked) [Example 2, 1-[(2,3-Dihydro-4H-1,4-benzodioxin)-2-ylmethyl]-4-(4-fluorobenzoyl)piperidine hydrochloride]	495 to 655	a decrease of the aggressiveness	a potentiation of the experimentally-induced sleep	a state of sedation
O=C(Oc1ccc(C(=O)C2CCN(CC3COc4ccccc4O3)CC2)cc1)c1cccnc1 (centres unmarked) [Example 8, 1-[(2,3-Dihydro-4H-1,4-benzodioxin)-2-ylmethyl]-4-(4-hydroxybenzoyl)piperidine nicotinate]	> 3200			
